Source: patent US12162857B2, “Antiviral compounds” (priority 2022, dated 2024)

Test system: HMPV A2 TN/94-49
Experiment: HMPV antiviral assay: LLC-MK2 cells, ATP-Lite readout
Format: cell-based
Details: LLC-MK2, 168 h, MOI 0.005, 7 days incubation
Protocol: In vitro HMPV antiviral activity was evaluated using the clinical isolate A2 strain TN 94-49 and LLC-MK2 cells (ATCC #CCL-7), an immortalized kidney epithelial cell line from Macaca mulatta. Compounds were resuspended in dimethyl sulfoxide (DMSO) at 10 mM, serially diluted and added to a 384-well source plate. Subsequently, the compounds were diluted and transferred onto 384-well assay plates using the Echo-650 automated liquid handling system (Beckman Coulter, Indiana). The test compounds were assessed in duplicate at a top concentration of 2 μM followed by 2.5-fold serial dilutions to give a total of 10 concentration points. DMSO control wells were also included on the assay plates and were either infected or not, acting as positive and negative controls. A2 TN 94-49 virus infections were performed in-suspension with LLC-MK2 cells. The cells were washed twice with PBS and removed from the cell-culture flask with 0.25% trypsin-EDTA (Thermo Fisher Scientific, MA). The trypsin-EDTA was inactivated by resuspending in 2% fetal bovine serum (FBS) and OptiMEM (ThermoFisher Scientific, MA) containing 1% penicillin-streptomycin. Cells were pelleted by centrifuging for 5 minutes at 800 rpm, the supernatant was removed, and cells were re-suspended and washed in PBS plus 100 μg/mL CaCl2). This step was performed twice. Cells were then re-suspended in serum-free (SF)-OptiMEM containing 4 μg/mL TPCK-Trypsin (Sigma Aldrich, MO), 1% penicillin-streptomycin (ThermoFisher Scientific, MA) and 100 μg/mL CaCl2). Cells were counted and seeded at a density of 5,000 cells/well, 12.5 μL/well. Virus infections were done at a multiplicity of infection (MOI) of 0.005 with 12.5 μL added per well. Virus infections were performed in infection media which contained SF-OptiMEM, 100 μg/mL CaCl2) and 1% penicillin-streptomycin. HMPV viral stocks are suspended in infection media+5% glycerol, thus an equal volume of infection media+5% glycerol was added to uninfected wells to equalize the final % glycerol across all wells of the assay plate. The final concentration of TPCK-trypsin was 2 μg/mL. The assay plates were incubated at 37° C., 5% CO2 for 7 days. After 7 days incubation, 12.5 μL of ATP-Lite (PerkinElmer, MA) was added to each well and the raw luminescence values were determined using the Envision 2104 (Perkin Elmer, MA). The average of the raw luminescence values for the cells and virus only positive control wells was subtracted from all conditions tested and the percent cell health was determined by dividing these values by the average of the cells only negative control wells. EC50 values were then calculated by non-linear regression using a four-parameter curve logistic equation. The curve fit model employed was XLFit Dose Response One Site Model 200: y=(A+(B/(1+((x/C)^D)))), where A is the minimum y value, B is the maximum y value, C is the log EC50 value, and D is the slope factor. […] EC50 ranges are as follows: A<1 μM; B>1 μM.

Compound	EC50 [µM]
COc1cc(C(=O)NC[C@@](O)(c2ccccc2)c2cc(C(C)(C)O)c(F)c(-c3cc(Cl)c(F)cc3F)n2)cc2cn(C3CC3)nc12 [Example 60]	< 1
COc1cc(C(=O)NC[C@@](O)(c2cccc(F)c2)c2cc(C(C)(C)O)c(F)c(-c3cc(Cl)c(F)cc3F)n2)cc2sc(C)nc12 [Example 89]	< 1
COc1cc(C(=O)NC[C@](O)(c2cc(C(C)(C)F)c(F)c(-c3cc(Cl)c(F)cc3F)n2)C2CC2)cc2cn(C(F)F)nc12 [Example 179]	> 1
COc1cc(C(=O)NC[C@@](O)(c2cccc(F)c2)c2cc(C(C)(C)O)c(F)c(-c3ccc(F)c(Cl)c3Cl)n2)cc2cc(C3CC3)nn12 [Example 106]	> 1
COc1cc(C(=O)NC[C@@](O)(c2ccccc2)c2cc(C(C)(C)O)c(F)c(-c3ccc(F)c(Cl)c3F)n2)cc2cn(C(F)F)nc12 [Example 122]	< 1
COc1cc(C(=O)NC[C@](O)(c2ccc(F)c(-c3cc(F)c(F)cc3F)n2)C2CC2)cc2cn(C3CC3)nc12 [Example 172]	> 1
COc1cc(C(=O)NC[C@@](O)(c2cccc(F)c2)c2cc(C(C)(C)O)c(F)c(-c3cc(Cl)c(F)cc3F)n2)cc2cn(C(F)F)nc12 [Example 92]	< 1
COc1cc(C(=O)NC[C@](O)(c2cc(C(C)(C)O)c(F)c(-c3cc(Cl)c(F)cc3F)n2)c2cccs2)cc2cn(C3CC3)nc12 [Example 113]	< 1
COc1cc(C(=O)NC[C@](O)(c2cc(C(C)(C)O)c(F)c(-c3ccc(F)c(Cl)c3F)n2)C2CC2)cc2cn(C3CC3)nc12 [Example 119]	< 1
COc1cc(C(=O)NC[C@@](O)(c2ccccc2)c2nc(-c3cc(Cl)c(F)cc3F)c(F)c(C(C)(C)O)c2F)cc2cn(C(F)F)nc12 [Example 128]	< 1
CC(C)(O)c1cc([C@@](O)(CNC(=O)c2cc(Cl)c3nn(C4CC4)cc3c2)c2ccccc2)nc(-c2cccc(Cl)c2Cl)c1F [Example 82]	< 1
COc1cc(C(=O)NC[C@](O)(c2ccc(F)c(-c3cc(Cl)c(F)cc3F)n2)C2CC2)cc2cn(C3(F)CC3)nc12 [Example 173]	> 1
[2H]C([2H])([2H])C(O)(c1cc([C@@](O)(CNC(=O)c2cc(OC)c3nn(C(F)F)cc3c2)C2CC2)nc(-c2cc(Cl)c(F)cc2F)c1F)C([2H])([2H])[2H] [Example 188]	< 1
COc1cc(C(=O)NC[C@@](O)(c2ccccc2)c2cc(C(C)(C)O)c(Cl)c(-c3cc(Cl)c(F)cc3F)n2)cc2cn(C(F)F)nc12 [Example 134]	> 1
COc1cc(C(=O)NC[C@@](O)(c2ccccc2)c2cc(C(C)(C)O)c(Cl)c(-c3ccc4c(c3Cl)OC(F)(F)O4)n2)cc2sc(C)nc12 [Example 135]	> 1
COc1cc(C(=O)NC[C@@](O)(c2cccc(F)c2)c2cc(C(C)(C)O)c(F)c(-c3cc(Cl)c(F)cc3F)n2)cc2cc(C3CC3)nn12 [Example 93]	< 1
CC(C)(O)c1cc([C@@](O)(CNC(=O)c2cc(OC3CC3)c3nn(C4CC4)cc3c2)C2CC2)nc(-c2ccc(F)c(Cl)c2F)c1F [Example 121]	< 1
COc1cc(C(=O)NC[C@@](O)(c2cccc(F)c2)c2cc(C(C)(C)O)c(F)c(-c3ccc(F)c(Cl)c3Cl)n2)cc2cn(C(F)F)nc12 [Example 104]	< 1
COc1cc(C(=O)NC[C@@](O)(c2ccccc2)c2cc(C(C)(C)O)c(F)c(-c3ccc(F)cc3F)n2)cc2cn(C3CC3)nc12 [Example 87]	> 1
[2H]C([2H])([2H])C(O)(c1cc([C@@](O)(CNC(=O)c2cc(OC)c3nn(C4CC4)cc3c2)C2CC2)nc(-c2cc(Cl)c(F)cc2F)c1F)C([2H])([2H])[2H] [Example 186]	< 1
COc1cc(C(=O)NC[C@@](O)(c2cccc(F)c2)c2cc(C(C)(C)O)c(F)c(-c3ccc4c(c3Cl)OC(F)(F)O4)n2)cc2sc(C)nc12 [Example 108]	< 1
COc1cc(C(=O)NC[C@@](O)(c2ccccc2)c2cc(C(C)(C)O)c(F)c(-c3cccc(Cl)c3Cl)n2)cc2cn(C(F)F)nc12 [Example 80]	< 1
COc1cc(C(=O)NC[C@@](O)(c2cccc(F)c2)c2cc(C(C)(C)O)c(F)c(-c3ccc4c(c3Cl)OC(F)(F)O4)n2)cc2cn(C(F)F)nc12 [Example 111]	< 1

Compound	EC50 [µM]
CC(C)(C(N)=O)c1cc([C@@](O)(CNC(=O)c2cc(Cl)c3nn(C4CC4)cc3c2)c2ccccc2)nc(-c2cc(Cl)c(F)cc2F)c1F [Example 162]	< 1
COc1cc(C(=O)NC[C@@](O)(c2ccccc2)c2cc(C(=O)Nc3ncc[nH]3)c(F)c(-c3cc(Cl)c(F)cc3F)n2)cc2cn(C3CC3)nc12 [Example 190]	> 1
COc1cc(C(=O)NC[C@@](O)(c2ccccc2)c2cc(C(C)(C)O)c(F)c(-c3cc(F)ccc3F)n2)cc2cn(C3CC3)nc12 [Example 83]	> 1
COc1cc(C(=O)NC[C@@](O)(c2cccc(F)c2)c2cc(C(C)(C)O)c(F)c(-c3cccc(Cl)c3Cl)n2)cc2cc(C3CC3)nn12 [Example 101]	< 1
COc1cc(C(=O)NC[C@](O)(c2ccc(F)c(-c3cc(Cl)c(F)cc3F)n2)C2CC2)cc2cn(C(F)F)nc12 [Example 174]	> 1
COc1cc(C(=O)NC[C@](O)(c2ccc(F)c(-c3cc(Cl)c(F)cc3F)n2)C2CC2)cc2cc(Cl)c(C)nc12 [Example 176]	> 1
CC(C)(O)c1cc([C@@](O)(CNC(=O)c2cc(Cl)c3nn(C4CC4)cc3c2)c2ccccc2)nc(-c2ccc3c(c2Cl)OC(F)(F)O3)c1Cl [Example 137]	> 1
COc1cc(C(=O)NC[C@@](O)(c2ccccc2)c2cc(N3C(=O)CCC3C(N)=O)cc(-c3cc(Cl)c(F)cc3F)n2)cc2cn(C3CC3)nc12 (stereo partly shown) [Example 197]	> 1
COc1cc(C(=O)NC[C@@](O)(c2cccc(F)c2)c2cc(C(C)(C)O)c(F)c(-c3ccc(F)c(Cl)c3Cl)n2)cc2sc(C)nc12 [Example 107]	< 1
COc1cc(C(=O)NC[C@@](O)(c2ccccc2)c2cc(C(C)(C)F)c(F)c(-c3cc(Cl)c(F)cc3F)n2)cc2cc(C3CC3)nn12 [Example 181]	> 1
COc1cc(C(=O)NC[C@](O)(c2cc(C(C)(C)O)c(F)c(-c3cc(Cl)c(F)cc3F)n2)c2nccs2)cc2cn(C3CC3)nc12 [Example 58]	< 1
COc1cc(C(=O)NC[C@](O)(c2cc(C(C)(C)O)c(F)c(-c3cc(Cl)c(F)cc3F)n2)c2cccs2)cc2cn(C(F)F)nc12 [Example 114]	< 1
COc1cc(C(=O)NC[C@@](O)(c2ccccc2)c2cc(C(C)(C)F)c(F)c(-c3cc(Cl)c(F)cc3F)n2)cc2cn(C(F)F)nc12 [Example 182]	> 1
COc1cc(C(=O)NC[C@@](O)(c2ccccc2)c2cc(C(C)(C)O)cc(-c3cccc(Cl)c3Cl)n2)cc2cn(C3CC3)nc12 [Example 148]	< 1
CC(C)(O)c1cc([C@@](O)(CNC(=O)c2cc(Cl)c3nn(C4CC4)cc3c2)c2ccccc2)nc(-c2ccc3c(c2Cl)OC(F)(F)O3)c1F [Example 75]	> 1
COc1cc(C(=O)NC[C@@](O)(c2ccccc2)c2cc(C(C)(C)C(N)=O)c(F)c(-c3cc(Cl)c(F)cc3F)n2)cc2cn(C3CC3)nc12 [Example 160]	< 1
CCC(O)(CC)c1cc([C@@](O)(CNC(=O)c2cc(OC)c3nn(C4CC4)cc3c2)c2ccccc2)nc(-c2cc(Cl)c(F)cc2F)c1F [Example 116]	< 1
CC(C)(O)c1cc([C@@](O)(CNC(=O)c2cc(Cl)c3nn(C4CC4)cc3c2)c2cccc(F)c2)nc(-c2ccc3c(c2Cl)OC(F)(F)O3)c1F [Example 110]	> 1
COc1cc(C(=O)NC[C@@](O)(c2ccccc2)c2cc(C(C)(C)O)c(F)c(-c3ccc(F)c(Cl)c3Cl)n2)cc2sc(C)nc12 [Example 71]	< 1
CC(C)(O)c1cc([C@@](O)(CNC(=O)c2cc(Cl)c3nn(C4CC4)cc3c2)c2cccc(F)c2)nc(-c2cccc(Cl)c2Cl)c1F [Example 100]	> 1
COc1cc(C(=O)NC[C@@](O)(c2cccc(F)c2)c2cc(C(C)(C)O)c(F)c(-c3cc(F)c(F)cc3F)n2)cc2cc(C3CC3)nn12 [Example 95]	< 1
CC(C)(O)c1cc([C@@](O)(CNC(=O)c2cc(OC3CC3)c3nn(C4CC4)cc3c2)c2ccccc2)nc(-c2ccc(F)c(Cl)c2F)c1F [Example 125]	< 1
COc1cc(C(=O)NC[C@](O)(c2cc(C3(O)COC3)c(F)c(-c3ccc(F)cc3)n2)C2CC2)cc2cn(C3CC3)nc12 [Example 166]	> 1
